Our source for the IC50 values is paper PMC12648092 (Acta Pharmaceutica Sinica. B, 2025).

The target of the test is AChE (Homo sapiens, UniProt P22303). The experiment in a line: ROCMCBs.
Sequence of AChE (P22303 32-617 isoform P22303-2 limits assumed): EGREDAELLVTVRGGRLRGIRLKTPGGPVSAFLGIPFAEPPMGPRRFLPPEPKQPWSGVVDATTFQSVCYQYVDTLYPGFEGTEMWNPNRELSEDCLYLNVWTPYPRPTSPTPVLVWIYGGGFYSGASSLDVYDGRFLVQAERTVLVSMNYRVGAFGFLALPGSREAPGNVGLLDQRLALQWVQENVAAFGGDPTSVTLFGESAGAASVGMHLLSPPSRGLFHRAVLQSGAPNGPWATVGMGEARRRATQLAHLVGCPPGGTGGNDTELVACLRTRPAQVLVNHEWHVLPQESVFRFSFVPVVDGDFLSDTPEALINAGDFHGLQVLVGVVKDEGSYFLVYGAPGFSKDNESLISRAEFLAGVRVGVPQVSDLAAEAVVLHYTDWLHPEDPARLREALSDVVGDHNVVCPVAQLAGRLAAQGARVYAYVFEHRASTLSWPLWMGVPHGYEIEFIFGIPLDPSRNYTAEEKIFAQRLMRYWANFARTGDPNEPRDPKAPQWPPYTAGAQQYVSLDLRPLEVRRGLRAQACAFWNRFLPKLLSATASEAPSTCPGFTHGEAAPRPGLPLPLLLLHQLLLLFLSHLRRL

One may read the IC50 as the concentration at which inhibition is half-maximal. Take `O=C(O)[C@H]1O[C@@H](Oc2cc3oc(-c4ccccc4)cc(=O)c3c(O)c2O)[C@H](O)[C@@H](O)[C@@H]1O` [baicalin]: the IC50 is 12.2 µM. The compound `OCc1ccc(O[C@@H]2O[C@H](CO)[C@@H](O)[C@H](O)[C@H]2O)cc1` [gastrodin] showed an IC50 of 3.2 µM. This IC50 is about 3.8-fold lower than that of the compound before. On to `COC(=O)C1=CO[C@@H](O[C@@H]2O[C@H](CO)[C@@H](O)[C@H](O)[C@H]2O)[C@@H]2C(CO)=CC[C@H]12` [geniposide], for which the IC50 worked out at 8.3 µM. `CC[C@H]1CN2CC[C@]3(C(=O)Nc4ccccc43)[C@@H]2C[C@@H]1/C(=C\OC)C(=O)OC` [rhynchophylline] displayed an IC50 of 66.3 µM.
